Test results reported in patent publication US9657009B2, “Heteroaryl substituted pyridyl compounds useful as kinase modulators” (BRISTOL-MYERS SQUIBB COMPANY, priority 2012, dated 2017).
Where two headings read alike, the source gives them in different places.

Target: IRAK4 (Homo sapiens (Human), UniProt Q9NWZ3)
Assay: IRAK4 Inhibition Assay
Format: biochemical
Description: IRAK4 Inhibition Assay The assays were performed in U-bottom 384-well plates. […] The reaction was initiated by the combination of IRAK4 with substrates and test compounds. The reaction mixture was incubated at room temperature for 60 min. and terminated by adding 45 μL of 35 mM EDTA to each sample.

[1] = ATP 500 μM, IRAK4 0.6 nM, 60 min at room temperature, read-out: IRAK4 IC50

Sequence of IRAK4 (Q9NWZ3 whole entry, species assumed): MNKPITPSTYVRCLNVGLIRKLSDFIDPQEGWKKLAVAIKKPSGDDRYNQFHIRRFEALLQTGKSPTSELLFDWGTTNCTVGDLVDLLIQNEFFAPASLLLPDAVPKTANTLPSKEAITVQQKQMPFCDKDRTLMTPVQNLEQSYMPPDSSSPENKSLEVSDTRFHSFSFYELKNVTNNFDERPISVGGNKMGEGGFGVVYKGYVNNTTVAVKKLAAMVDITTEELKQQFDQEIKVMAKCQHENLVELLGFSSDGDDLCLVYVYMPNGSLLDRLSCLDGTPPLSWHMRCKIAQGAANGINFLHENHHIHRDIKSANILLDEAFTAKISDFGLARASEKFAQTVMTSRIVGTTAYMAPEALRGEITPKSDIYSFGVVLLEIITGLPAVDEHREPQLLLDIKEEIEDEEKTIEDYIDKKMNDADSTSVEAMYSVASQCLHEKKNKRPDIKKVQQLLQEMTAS

| IC50 [1] [nM] | SMILES | IC50 [nM] |
| --- | --- | --- |
| 6 | CC(C)Nc1cc(Nc2ccc(C#N)c(N3CCC(O)C3)n2)ncc1C(=O)NC[C@@H](F)C(C)(C)O (stereo in doubt) [Example 27, 6-((5-cyano-6-((3S)-3-hydroxy-1-pyrrolidinyl)-2-pyridinyl)amino)-N-((2R)-2-fluoro-3-hydroxy-3-methylbutyl)-4-(isopropylamino)nicotinamide] | – |
| 53.9 | CNC(=O)c1cnc(Nc2ccc(C#N)cn2)cc1N[C@@H](c1ccccc1)[C@H](O)CO [Example 1, 6-((5-cyano-2-pyridinyl)amino)-4-(((1S,2S)-2,3-dihydroxy-1-phenylpropyl)amino)-N-methylnicotinamide] | – |
| 2 | CC(C)Nc1cc(Nc2ccc(C#N)cn2)ncc1C(=O)NC[C@@H](F)C(C)(C)O [Example 2, 6-((5-cyano-2-pyridinyl)amino)-N-((2R)-2-fluoro-3-hydroxy-3-methylbutyl)-4-(isopropylamino)nicotinamide] | – |
| 14.8 | CC(C)(O)[C@H](F)CNC(=O)c1cnc(Nc2ccc(C#N)cn2)cc1NCC(F)(F)F [Example 3, 6-((5-cyano-2-pyridinyl)amino)-N-((2R)-2-fluoro-3-hydroxy-3-methylbutyl)-4-((2,2,2-trifluoroethyl)amino)nicotinamide] | – |
| 10.3 | CCNc1cc(Nc2ccc(C#N)cn2)ncc1C(=O)NC[C@@H](F)C(C)(C)O [Example 4, 6-((5-cyano-2-pyridinyl)amino)-4-(ethylamino)-N-((2R)-2-fluoro-3-hydroxy-3-methylbutyl)nicotinamide] | – |
| 5.5 | CC(C)Nc1cc(Nc2ccc(C#N)cn2)ncc1C(=O)N[C@H]1CC[C@H](C(=O)NC2CC2)CC1 [Example 6, 6-((5-cyanopyridin-2-yl)amino)-N-((1R,4R)-4-(cyclopropylcarbamoyl)cyclohexyl)-4-(isopropylamino)nicotinamide] | – |
| 10.4 | CC(C)Nc1cc(Nc2ccc(C#N)cn2)ncc1C(=O)N[C@H]1CC[C@H](C(=O)N[C@H]2C[C@H]2F)CC1 [Example 7, 6-((5-cyano-2-pyridinyl)amino)-N-(trans-4-(((1S,2R)-2-fluorocyclopropyl)carbamoyl)cyclohexyl)-4-(isopropylamino)nicotinamide] | – |
| 30.7 | CC(=O)N1CCC(NC(=O)c2cnc(Nc3ccc(C#N)cn3)cc2NC(C)C)CC1 [Example 8, N-(1-acetyl-4-piperidinyl)-6-((5-cyano-2-pyridinyl)amino)-4-(isopropylamino)nicotinamide] | – |
| 7.4 | CC(=O)N[C@H]1CC[C@H](NC(=O)c2cnc(Nc3ccc(C#N)cn3)cc2NC(C)C)CC1 [Example 9, N-(trans-4-acetamidocyclohexyl)-6-((5-cyano-2-pyridinyl)amino)-4-(isopropylamino)nicotinamide] | – |
| 11.1 | CC(=O)N[C@H]1CC[C@H](NC(=O)c2cnc(Nc3ccc(C#N)cn3)cc2NC2CCOCC2F)CC1 (stereo partly drawn) [Example 11, N-((1R,4R)-4-acetamidocyclohexyl)-6-((5-cyanopyridin-2-yl)amino)-4-(((3S,4R)-3-fluorotetrahydro-2H-pyran-4-yl)amino)nicotinamide] | – |
| 1.9 | CC(C)Nc1cc(Nc2ncc(C#N)cc2Cl)ncc1C(=O)NC[C@@H](F)C(C)(C)O [Example 12, 6-((3-chloro-5-cyano-2-pyridinyl)amino)-N-((2R)-2-fluoro-3-hydroxy-3-methylbutyl)-4-(isopropylamino)nicotinamide] | – |
| 5.2 | CC(=O)N[C@H]1CC[C@H](NC(=O)c2cnc(Nc3ncc(C#N)cc3Cl)cc2NC(C)C)CC1 [Example 15, N-((1r,4r)-4-acetamidocyclohexyl)-6-((3-chloro-5-cyanopyridin-2-yl)amino)-4-(isopropylamino)nicotinamide] | – |
| 6.3 | CNC(=O)[C@H]1CC[C@H](NC(=O)c2cnc(Nc3ncc(C#N)cc3Cl)cc2NC(C)C)CC1 [Example 16, 6-((3-chloro-5-cyanopyridin-2-yl)amino)-4-(isopropylamino)-N-((1r,4r)-4-(methylcarbamoyl)cyclohexyl)nicotinamide] | – |
| 9.6 | CC(C)Nc1cc(Nc2ncc(C#N)cc2F)ncc1C(=O)NC[C@@H](F)C(C)(C)O [Example 17, 6-((5-cyano-3-fluoro-2-pyridinyl)amino)-N-((2R)-2-fluoro-3-hydroxy-3-methylbutyl)-4-(isopropylamino)nicotinamide] | – |
| 3.4 | CNC(=O)[C@H]1CC[C@H](NC(=O)c2cnc(Nc3ncc(C#N)cc3F)cc2NC(C)C)CC1 [Example 18, 6-((5-cyano-3-fluoropyridin-2-yl)amino)-4-(isopropylamino)-N-((1r,4r)-4-(methylcarbamoyl)cyclohexyl)nicotinamide] | – |
| 4.8 | CC(=O)N[C@H]1CC[C@H](NC(=O)c2cnc(Nc3ncc(C#N)cc3F)cc2NC(C)C)CC1 [Example 19, N-(trans-4-acetamidocyclohexyl)-6-((5-cyano-3-fluoro-2-pyridinyl)amino)-4-(isopropylamino)nicotinamide] | – |
| 11.7 | CC(C)Nc1cc(Nc2ccncn2)ncc1C(=O)NC[C@@H](F)C(C)(C)O [Example 20, N-((2R)-2-fluoro-3-hydroxy-3-methylbutyl)-4-(isopropylamino)-6-(4-pyrimidinylamino)nicotinamide] | – |
| 13.3 | CC(C)(O)[C@H](F)CNC(=O)c1cnc(Nc2ccncn2)cc1NC1CC1 [Example 21, 4-(cyclopropylamino)-N-((2R)-2-fluoro-3-hydroxy-3-methylbutyl)-6-(4-pyrimidinylamino)nicotinamide] | – |
| 5.3 | CC(C)Nc1cc(Nc2ncc(C#N)cn2)ncc1C(=O)NC[C@@H](F)C(C)(C)O [Example 22, 6-((5-cyano-2-pyrimidinyl)amino)-N-((2R)-2-fluoro-3-hydroxy-3-methylbutyl)-4-(isopropylamino)nicotinamide] | – |
| – | CC(C)(O)[C@H](F)CNC(=O)c1cnc(Nc2nc(-c3cccnc3)cs2)cc1NC1CC1 [Example 23, 4-(cyclopropylamino)-N-((2R)-2-fluoro-3-hydroxy-3-methylbutyl)-6-((4-(3-pyridinyl)-1,3-thiazol-2-yl)amino)nicotinamide] | 23.3 |
| 11 | CC(C)Nc1cc(Nc2ccnc(NC3CC3)n2)ncc1C(=O)NC[C@@H](F)C(C)(C)O [Example 24, 6-((2-(cyclopropylamino)-4-pyrimidinyl)amino)-N-((2R)-2-fluoro-3-hydroxy-3-methylbutyl)-4-(isopropylamino)nicotinamide] | – |
| 9.9 | CC(C)Nc1cc(Nc2ccnc(NC3CCCOC3)n2)ncc1C(=O)NC[C@@H](F)C(C)(C)O (stereo partly drawn) [Example 25, N-((2R)-2-fluoro-3-hydroxy-3-methylbutyl)-4-(isopropylamino)-6-((2-(tetrahydro-2H-pyran-3-ylamino)-4-pyrimidinyl)amino)nicotinamide] | – |
| 4.8 | CC(C)Nc1cc(Nc2ccnc(N3CCC(F)C3)n2)ncc1C(=O)NC[C@@H](F)C(C)(C)O (stereo partly drawn) [Example 26, N-((2R)-2-fluoro-3-hydroxy-3-methylbutyl)-6-((2-(3-fluoro-1-pyrrolidinyl)-4-pyrimidinyl)amino)-4-(isopropylamino)nicotinamide] | – |
| 1.5 | CC(=O)N[C@H](C)CCNC(=O)c1cnc(Nc2ncc(C#N)cc2Cl)cc1NC(C)C [Example 28, (R)—N-(3-acetamidobutyl)-6-((3-chloro-5-cyanopyridin-2-yl)amino)-4-(isopropylamino)nicotinamide] | – |
